Where two headings read alike, the source gives them in different places. Marks after values point to notes of the source that are not given here.

One data set has as its target NMDAR. In words: Displacement of specific [3H]MK-801 binding in rat cortex membranes. The method, then: [^3H]MK-801 Binding Assay. Crude synaptic membranes were prepared from the cerebral cortex of Sprague-Dawley rats. The pellets were stored at −80° C. for at least 24 h, and washed three more times with Tris-HEPES buffer (Tris 4.5 mM, HEPES 5 mM, pH 7.4) to remove the endogenous amino acids before the binding assay. In the binding assay, 50 μL of membrane preparation (40-50 μg protein), and 10 μL of compound were mixed at 25° C. in the presence of […] L-glutamate (10 μM) and 50 μL of glycine (10 μM). Then, 50 μl of [^3H]MK-801 (final concentration 3 nM) were added to the preparation. Tris-HEPES buffer was added to a final volume of 0.5 mL. Following incubation time of 2 h at 25° C., binding was terminated by filtration […]. Radioactivity was measured using a PerkinElmer liquid scintillation counter. Nonspecific binding was determined in the presence of unlabeled 100 μM MK-801. […] For compound activity determination, aliquots of membrane pellets were incubated with different ligand concentrations of MT66 and reference drug (10 nM-10 μM) in the absence of presence of 4 mM Cysteine for 30 min, and then incubated with 3 nM [^3H]MK-801 for 2 h at 25° C. Samples were then filtered, and the radioactivity was counted.
Displacement of specific [^3H]MK-801 binding in rat cortex membranes in the absence or presence of cysteine (Cys). MT66 was tested to assess its abilities to inhibit native-target activity (i.e. NMDAR). Binding to specific receptors (such as NMDAR) has been assessed using the assay based on the displacement of [^3H]MK-801 [19]. The evaluation has been performed in the presence and in absence of Cys.

The next data set has as its system Rat microglia cells. Briefly: Microglia protection from Aβ(1-42) induced injury (MTS assay). It is filed as cell-based. As to conditions: 10 μM pre-treatment 24 h, then Aβ1-42 24 h. The method, then: FIG. 7. Rat microglia cells were pre-treated with the compounds (10 μM) for 24 h. After washing, the cells were incubated with Aβ1-42 for 24 h. At the end of treatments, cell proliferation was measured by MTS assay. The data are expressed as percentages relative to untreated cells (control), which were set at 100%, and represent the mean±SEM of three independent experiments, each performed in triplicate. Statistical significance was determined using a one-way ANOVA followed by a Bonferroni post-test: *p<0.05 vs control; #p<0.05 vs cells treated with Aβ1-42.
Cell proliferation/viability assays on rat microglia cells. Rat microglia cells were isolated from mixed cell culture obtained from Sprague-Dawley rat cortex, by gentle physical shaking, as described. After isolation, cells were seeded into 96 well-plated with fresh culture media and pretreated with MT66 or native drug (10 μM) for 24 h; before washing and incubation with Aβ1-42 for 24 h. Following incubation time, cell viability was determined using the MTS assay. The absorbance of formazan was measured at […]. The results were calculated by subtracting the mean background from the values obtained from each test condition and were expressed as the percentage of the control (untreated cells).
Microglia protection from Aβ(1-42) induced injury. Microglia, together with astrocytes, forms the main active immune defense of the CNS. […]
On the technique in general: Tetrazolium dyes change colour on reduction, which living cells bring about.

The test system of the next data set is U87MG cells. In words: Western blot of autophagy markers in U87MG cells. As to conditions: 10 μM; for LC3II expression (LC3II/LC3I ratio) / p62 expression / p-mTOR expression (p-mTOR/mTOR ratio): 4 h; for LC3II expression: 24 h. It is filed as cell-based, human. As to the method: FIG. 6. Western blot quantification of LC3II/LC3I ratio, p62, mTOR and Akt as hallmarks of the degree of ATG activation. […] (D) Western blot quantification of pAkt/Akt ratio in U87MG cells. Results represent mean±SEM of three different gels. *P<0.05, **P<0.01, ***P<0.001 versus vehicle treated cells (Control).
Western blot analysis. The human U-87MG cells were seeded in 6-well plates in a final volume of 2 ml/well at a density of 1×10^6/well and grown to 80% of confluence with standard medium (DMEM-High Glucose). Cells were treated with vehicle (0.1% DMSO) or test compounds (i.e. 10 μM Memantine or Memit and (1 μM) Rapamycin and incubated at 37° C. for 4 and 24 h. Treated cells were washed twice with PBS and lysed in Tris-buffered saline buffer-1% Triton-X100; NaCl 150 mM; Tris-HCl 20 mM; EDTA 1 mM; EGTA 1 mM; NaF 20 mM; Na4P2O7 25 mM; Na3VO4 1 mM; PMSF 1 mM; 8 μ/ml protein cocktail inhibitors (Sigma-Aldrich, Milan, Italy). Proteins (30-40 μg) were separated on Criterion TGX™ gel (4-20%) and transferred on Immuno-PVDF membrane (Bio-Rad, Milan, Italy) for 1 h. Blots were incubated for 12 h with diluted primary antibody [1:1000, LC3A/B; p62; mTOR, p-mTOR; Akt, p-Akt(Ser 473); β-actin, Cell Signaling] in 5% w/v BSA, 1× TBS and 0.1% Tween 20 at 4° C. under gentle shaking. Then, blots were washed three times for 10 min with 1× TBS, 0.1% Tween 20 and incubated for 1 h with secondary antibody (peroxidase-coupled anti rabbit in 1× TBS, 0.1% Tween 20). […] Band densitometric analysis was performed using Image Lab Software (Bio-Rad, Milan, Italy).
Evaluation of proautophagic activity: Expression of protein LC3-II, p62, and m-TOR, indicators of autophagy, were detected by western blotting, using Rapamycin as a positive control. In U87MG cell lines.
In general terms: Immunoblotting shows a protein as a band on a membrane.

Data set [1] in a line: Amperometric determination of H2S release. It is filed as physicochemical. As to conditions: assay buffer, absence or presence of L-cysteine. The method, then: FIG. 1: Curves describe the increase of H2S concentration, with respect to time, following the incubation of GYY 4137, the H2S-prodrug MT66 in the assay buffer, in the absence (white symbol) or in the presence of L-cysteine (black symbol) or glutathione (black triangles). H2S was recorded by amperometry; the vertical bars indicate the SEM.
Amperometric Determination of H2S: The characterization of the H2S-generating properties of the new compounds was carried out by amperometric approaches through an Apollo-4000 Free Radical Analyzer (WPI) detector and H2S-selective minielectrodes. The procedure has been recently reported by us.
The H2S-releasing properties were evaluated both in the absence or in the presence of an organic thiol such as L-cysteine.

In data set [2] the test system is Aβ(1-40) self-induced aggregation. Briefly: Thioflavin T fluorescence assay of Aβ aggregation. The settings on record: 10 μM pre-treatment 24 h, ThT fluorescence. It is filed as cell-based. As to the method:
The Thioflavin T fluorescence assay. Thioflavin T (ThT) dye fluorescence was used to quantify the formation and inhibition of amyloid oligomers in the presence of anti-amyloidogenic compounds. The ThT stock solution was prepared by adding 8 mg ThT to 10 mL phosphate buffer (10 mM phosphate, 150 mM NaCl, pH 7.0) and filter through a 0.2 μm syringe filter. This stock solution should be stored in the dark and is stable for about one week. On the day of the analysis, the stock solution was diluted into PBS to obtain the concentration of 10 μM. The Aβ1-42 oligomers were prepared by diluting the stock solution in PBS and the dilution was shaking for 48 hours at 37° C. The cells were seeded in black 96-multiwell plate (3000 c/w) and treated with the compound MT66 and reference drug (10 μM) for 24 h. Following incubation time, cells were washed and incubated with Aβ1-42 oligomers for 24 h. After this time, 200 μl of ThT 10 μM were added to each well in the dark. The ThT fluorescence intensity of each sample was recorded every 5 min using a spectrophotometer by excitation at 355 nm and emission 535 nm.
Inhibition of Aβ(1-40) self-induced aggregation. The new compound was also tested to evaluate their ability to inhibit the Aβ(1-40) self-induced aggregation.

In data set [3] the test system is Human neuronal-like cells. In words: Neuroprotection in LPS/TNF-α challenged neuronal-like cells (MTS assay). The settings on record: 10 μM pre-treatment 24 or 72 h, then 50 μg/ml LPS and 50 ng/ml TNF-α 16 h. In kind it is cell-based. The method, then: FIG. 2: Neuroprotective effects. Human neuronal-like cells were treated with medium alone (CONTROL) or with the compounds (10 μM) for 24 h (light grey) or 72 h(dark grey); after drug removal, cells were incubated with 50 μg/ml LPS and 50 ng/ml TNF-α for an additional 16 h. At the end of treatment, cell proliferation was measured by MTS assay. The data are expressed as percentages relative to untreated cells (control), which were set at 100%, and represent the mean±SEM of three independent experiments, each performed in triplicate. Statistical significance was determined using a one-way ANOVA-Tukey HSD post hoc test: *P<0.05, ***P<0.001 vs. control; ##P<0.01, ###P<0.001 vs. cells treated with LPS-TNF-α.
Cell proliferation/viability assays: Following incubation time, cell viability was determined using the MTS assay according to the manufacturer's instruction. […] The absorbance of formazan at […] was measured in a colorimetric assay with an automated plate reader. The results were calculated by subtracting the mean background from the values obtained from each test condition, and are expressed as the percentage of the control (untreated cells).
Evaluation of neuroprotective effects. […] The effects of H2S prodrug under physiological conditions and under inflammatory stress exposure were assessed by measuring cellular viability.

Data set [4] deals with Human neuronal-like cells. Briefly: ROS production in LPS/TNF-α challenged neuronal-like cells (DCFH2-DA). It is filed as cell-based. As to conditions: 10 μM pre-treatment 24 h, then LPS and TNF-α 16 h. As to the method:
FIG. 3. Effects induced on ROS production. Human neuronal-like cells were treated with medium alone (CONTROL) or the compound (10 μM) for 24 h; after drug removal, cells were incubated with 50 μg/ml LPS and 50 ng/ml TNF-α for an additional 16 h. At the end of treatment, ROS production was measured using the fluorogenic probe DCFH2-DA. The data are expressed as percentages relative to untreated cells (control), which were set at 100%, and represent the mean±SEM of two independent experiments, each performed in triplicate. Statistical significance was determined using a one-way ANOVA-Tukey HSD post hoc test: ***P<0.001 vs. control; ###P<0.001 vs. cells treated with LPS-TNF-α.
Mitochondria ROS generation: The generation of ROS was assessed by the fluorogenic probe DCFH2-DA (Molecular Probes, Invitrogen) in Neuronal-like cells, differentiated from H9-derived NSCs.). […] This nonfluorescent molecule is readily converted to a green-fluorescent form […] when the acetate group is removed by intracellular esterases and an oxidation by ROS occurs within the cell. […] Fluorescence increase was estimated in a plate reader at 485 nm (excitation) and 520 nm (emission) (Wallac, Victor 2, 1420 multilabel counter, PerkinElmer). The fluorescence values were normalized between samples for cell number content and assessed by a crystal violet cell staining assay. […]

Setting [5] is: presence of 4 mM cysteine, 30 min preincubation, read-out: Ki, nM (+Cys 4 mM, 30 min).

On to `CC12CC3CC(C)(C1)CC(N)(C3)C2` [Memantine, reference compound], for which the Ki on NMDAR (absence of cysteine, 3 nM [3H]MK-801, rat cortex membranes, read-out: Ki, nM (−Cys)) came out at 955 ± 74.2 nM. Moreover, the Ki at NMDAR (setting [5]) stood at 329 ± 10.9 nM. Moreover, the “cell proliferation after Aβ1-42 oligomers” value in the data set with Rat microglia cells is “completely restore cell proliferation”. In the data set on U87MG cells, the “LC3II expression (LC3II/LC3I ratio)” value is “significant up-regulation”, the p62 expression entry is recorded as “decreased expressions”, the “p-mTOR expression (p-mTOR/mTOR ratio)” value is reported as “decreased expressions” and the LC3II expression result was “remained almost unchanged”.
Consider `C1COCCN1.COc1ccc(P(=S)(S)N2CCOCC2)cc1` (centres unmarked) [GYY4137, reference compound], for which the H2S-releasing properties entry in data set [1] is on record as “slow H2S-releasing”.
Take `CC12CC3CC(C)(C1)CC(N=C=S)(C3)C2` [MT66]: in data set [2], the “Aβ(1-40) self-induced aggregation” value is recorded as “induces a reduction”. The “Percentage of inhibition of specific [3H]MK-801 binding (−Cys)” value in the data set with NMDAR (absence of cysteine, concentration not given) came out at 28.0% ^b. For the same molecule, at NMDAR (setting [5]), the Ki worked out at 458 ± 77.7 nM. The “cell proliferation/viability after inflammatory insult” value in data set [3] is on record as “exhibited neuroprotective effects during inflammation”. The “ROS accumulation under inflammatory conditions” value in data set [4] is reported as “almost completely counteracted inflammatory-mediated effects”. Further, in data set [1], the H2S-releasing properties result is “slow and L-cysteine-dependent H2S-releasing mechanism”. For the same molecule, in the data set with Rat microglia cells, the “cell proliferation after Aβ1-42 oligomers” value is “completely restore cell proliferation”. In the data set on U87MG cells, the “LC3II expression (LC3II/LC3I ratio)” value was “significant up-regulation”, the p62 expression result is reported as “decreased expressions”, the “p-mTOR expression (p-mTOR/mTOR ratio)” value is reported as “decreased expressions” and the LC3II expression result was “remained almost unchanged”.
In the case of `CC12NC(Cc3ccccc31)c1ccccc12` (centres unmarked) [[^3H]MK-801], the Kd at NMDAR (rat cortex membranes, read-out: dissociation constant (Kd) of [3H]MK-801) was determined as 4 nM.

Broadly, the Ki is a dissociation constant, usually derived from enzyme kinetics or from competition with a known ligand. One may read the Kd as a measure of binding affinity in units of concentration.

(Values after patent publication US20210070730A1, “H2S-BASED THERAPEUTIC AGENTS FOR THE TREATMENT OF NEURODEGENERATIVE DISEASES” (INTERNATIONAL SOCIETY FOR DRUG DEVELOPMENT S.R.L., priority 2017, published 2021).)
